The target of the series is T1, hERG potassium ion channel (Homo sapiens, UniProt Q12809).
T1 construct: host or cells: CHO
The series is described as follows: Inhibition of hERG potassium ion channel (QPatch, CHO hERG cells). It counts as cell-based. The protocol:
1.1 The cells used in this experiment were CHO cell line (provided by Sophion Bioscience, Denmark) transfected with hERG cDNA and stably expressing hERG channels, with a cell generation of 17. The cells were cultured in a medium containing the following components (all obtained from Invitrogen): Ham's F12 medium, 10% (v/v) inactivated fetal bovine serum, 100 μg/mL hygromycin B, and 100 μg/mL geneticin.
1.2 CHO hERG cells were cultured in a petri dish containing the above culture medium in an incubator containing 5% CO2 at 37° C. 24 to 48 h before the electrophysiological experiment, CHO hERG cells were transferred to a round glass slide placed in a petri dish, and cultured in the same medium and conditions as above. The density of CHO hERG cells on each round glass slide met the requirement that the majority of cells were independent and individual.
A fully automated QPatch system (Sophion, Denmark) was used for whole-cell current recordings. Cells were clamped at a voltage of −80 mV. […]
After reaching a membrane-permeable whole-cell configuration state during the initial phase, the cells were recorded for at least 120 s to reach stabilization. […]
The test data were analyzed by analysis software Qpatch provided by Sophion, Excel, Graphpad Prism, and the like.
A general note: hERG is a cardiac potassium channel; its block is linked to QT prolongation.

What is called IC50 is the midpoint of a concentration-inhibition curve. A lower IC50 goes with higher potency.

T1 sequence (Q12809 whole entry): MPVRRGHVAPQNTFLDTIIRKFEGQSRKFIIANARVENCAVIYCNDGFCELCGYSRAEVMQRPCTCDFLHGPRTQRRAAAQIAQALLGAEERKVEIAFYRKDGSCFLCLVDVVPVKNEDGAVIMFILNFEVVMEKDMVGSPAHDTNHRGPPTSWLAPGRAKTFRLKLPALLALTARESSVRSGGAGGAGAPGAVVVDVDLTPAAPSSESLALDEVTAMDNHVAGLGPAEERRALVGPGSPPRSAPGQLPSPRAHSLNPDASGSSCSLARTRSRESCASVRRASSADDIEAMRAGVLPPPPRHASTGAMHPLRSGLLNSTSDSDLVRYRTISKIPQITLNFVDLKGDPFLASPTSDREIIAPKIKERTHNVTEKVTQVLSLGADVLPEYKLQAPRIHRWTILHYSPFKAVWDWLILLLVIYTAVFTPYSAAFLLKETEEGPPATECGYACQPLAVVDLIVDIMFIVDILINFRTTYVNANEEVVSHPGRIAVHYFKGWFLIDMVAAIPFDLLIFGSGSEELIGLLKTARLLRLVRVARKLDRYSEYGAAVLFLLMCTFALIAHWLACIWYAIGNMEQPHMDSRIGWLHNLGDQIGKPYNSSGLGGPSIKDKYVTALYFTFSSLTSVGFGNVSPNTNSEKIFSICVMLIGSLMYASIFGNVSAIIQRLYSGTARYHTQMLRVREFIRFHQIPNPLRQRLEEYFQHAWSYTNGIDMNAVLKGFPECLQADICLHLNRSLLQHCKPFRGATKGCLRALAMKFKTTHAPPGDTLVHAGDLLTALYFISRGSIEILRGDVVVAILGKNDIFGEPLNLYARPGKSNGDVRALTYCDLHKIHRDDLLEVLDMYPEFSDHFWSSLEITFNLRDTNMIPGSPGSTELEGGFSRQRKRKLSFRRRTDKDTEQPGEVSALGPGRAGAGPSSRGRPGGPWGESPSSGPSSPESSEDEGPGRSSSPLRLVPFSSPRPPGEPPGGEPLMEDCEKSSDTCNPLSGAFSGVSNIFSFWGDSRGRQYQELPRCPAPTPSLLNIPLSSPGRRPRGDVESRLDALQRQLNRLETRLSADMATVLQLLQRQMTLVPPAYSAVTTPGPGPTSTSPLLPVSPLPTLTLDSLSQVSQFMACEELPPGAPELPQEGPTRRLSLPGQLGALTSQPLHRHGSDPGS

As to `C=CC(=O)N1C[C@@H]2C(=O)N(C)c3c(c4cc(Cl)c(-c5c(O)cccc5F)nc4n(-c4c(SC)ccnc4C(C)C)c3=O)N2C[C@H]1C` (single isomer, unassigned) [Compound 17], the “Inhibitory effect on heart hERG potassium ion channel (in words)” value is “no obvious inhibitory effect”. This compound had an IC50 (highest test concentration 30 μM) of more than 30 µM.
